Patent US9156796B2, “Benzoimidazole-carboxylic acid amide derivatives as APJ receptor modulators” (SANOFI, priority 2013, dated 2015)

These compounds were tested against T1, human apelin receptor (Homo sapiens, UniProt P35414) (assay: Determination of agonism on the human apelin receptor by a calcium fluorescence assay (FLIPR)). Conditions: HEK293 cells stably transfected with human apelin receptor and Giaq protein, Fluo-4 calcium fluorescence, read-out: EC50 (APJ agonism).
T1 construct: expressed in transfected cells
T1 sequence (P35414 1-380): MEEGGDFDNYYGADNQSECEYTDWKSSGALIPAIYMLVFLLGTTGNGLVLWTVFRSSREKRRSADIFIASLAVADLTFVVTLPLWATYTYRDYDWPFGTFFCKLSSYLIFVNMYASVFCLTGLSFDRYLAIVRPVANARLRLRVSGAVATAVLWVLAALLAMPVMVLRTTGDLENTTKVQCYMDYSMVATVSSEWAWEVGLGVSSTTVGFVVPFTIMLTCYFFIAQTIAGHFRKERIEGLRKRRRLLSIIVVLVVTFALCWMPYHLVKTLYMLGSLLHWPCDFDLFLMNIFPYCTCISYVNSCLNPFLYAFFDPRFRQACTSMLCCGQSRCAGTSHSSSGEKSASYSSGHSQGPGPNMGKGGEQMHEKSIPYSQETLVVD
Format: cell-based
Summary of the method: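 Agonist EC50s come from peak intracellular calcium transients recorded by FLIPR Tetra, scaled to the 1 μM apelin-13 maximum per plate. Test system: HEK293 stably transfected with human apelin receptor plus Giaq, Fluo-4-loaded (4 μM, 1 h, 37 °C, pH 7.4 buffer with probenecid); ≥7 concentrations, triplicates.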
With CCC(CC)n1c(Cc2cccs2)nc2cc(C(=O)N[C@@H](CC(C)C)C(=O)N3CCC(OC)CC3)ccc21 [Example 373, 1-(1-Ethyl-propyl)-2-thiophen-2-ylmethyl-1H-benzoimidazole-5-carboxylic acid [(S)-1-(4-methoxy-piperidine-1-carbonyl)-3-methyl-butyl]-amide] the EC50 was 1840 nM. In the case of CCC(CC)n1c(Cc2cccs2)nc2cc(C(=O)N[C@@H](CC(C)C)C(=O)N3CCC(COC)CC3)ccc21 [Example 374, 1-(1-Ethyl-propyl)-2-thiophen-2-ylmethyl-1H-benzoimidazole-5-carboxylic acid [(S)-1-(4-methoxymethyl-piperidine-1-carbonyl)-3-methyl-butyl]-amide], the EC50 is reported as 2180 nM. With CCC(CC)n1c(Cc2cccs2)nc2cc(C(=O)N[C@@H](CC(C)C)C(=O)N3CCC(OC(C)C)CC3)ccc21 [Example 375, 1-(1-Ethyl-propyl)-2-thiophen-2-ylmethyl-1H-benzoimidazole-5-carboxylic acid [(S)-1-(4-isopropoxy-piperidine-1-carbonyl)-3-methyl-butyl]-amide] the EC50 was 2880 nM. For CCC(CC)n1c(Cc2cccs2)nc2cc(C(=O)N[C@@H](CC(C)C)C(=O)N3CCCC(OC)C3)ccc21 (stereo partly drawn) [Example 376, 1-(1-Ethyl-propyl)-2-thiophen-2-ylmethyl-1H-benzoimidazole-5-carboxylic acid [(S)-1-(3-methoxy-piperidine-1-carbonyl)-3-methyl-butyl]-amide], the EC50 was 1830 nM. CCC(CC)n1c(Cc2cccs2)nc2cc(C(=O)N[C@@H](CC(C)C)C(=O)N(C)C3CCOCC3)ccc21 [Example 377, 1-(1-Ethyl-propyl)-2-thiophen-2-ylmethyl-1H-benzoimidazole-5-carboxylic acid {(S)-3-methyl-1-[methyl-(tetrahydro-pyran-4-yl)-carbamoyl]-butyl}-amide] gave an EC50 of 1140 nM. Work on CCC(CC)n1c(Cc2cccs2)nc2cc(C(=O)N[C@@H](CC(C)C)C(=O)N3CCCC(COC)C3)ccc21 (stereo partly drawn) [Example 378, 1-(1-Ethyl-propyl)-2-thiophen-2-ylmethyl-1H-benzoimidazole-5-carboxylic acid [(S)-1-(3-methoxymethyl-piperidine-1-carbonyl)-3-methyl-butyl]-amide] yielded an EC50 of 2440 nM. With CCC(CC)n1c(Cc2cccs2)nc2cc(C(=O)N[C@@H](CC(C)C)C(=O)N3CCCC3)ccc21 [Example 379, 1-(1-Ethyl-propyl)-2-thiophen-2-ylmethyl-1H-benzoimidazole-5-carboxylic acid [(S)-3-methyl-1-(pyrrolidine-1-carbonyl)-butyl]-amide] the EC50 was 1800 nM. Compound CCC(CC)n1c(Cc2cccs2)nc2cc(C(=O)N[C@@H](CC(C)C)C(=O)N(C)CCOC)ccc21 [Example 380, 1-(1-Ethyl-propyl)-2-thiophen-2-ylmethyl-1H-benzoimidazole-5-carboxylic acid {(S)-1-[(2-methoxy-ethyl)-methyl-carbamoyl]-3-methyl-butyl}-amide] has an EC50 of 586 nM. CCC(CC)n1c(Cc2cccs2)nc2cc(C(=O)N[C@@H](CC(C)C)C(=O)NC)ccc21 [Example 381, 1-(1-Ethyl-propyl)-2-thiophen-2-ylmethyl-1H-benzoimidazole-5-carboxylic acid ((S)-3-methyl-1-methylcarbamoyl-butyl)-amide] gave an EC50 of 970 nM. Work on CCC(CC)n1c(Cc2cccs2)nc2cc(C(=O)N[C@@H](CC(C)C)C(=O)NCCC3CCOCC3)ccc21 [Example 382, 1-(1-Ethyl-propyl)-2-thiophen-2-ylmethyl-1H-benzoimidazole-5-carboxylic acid {(S)-3-methyl-1-[2-(tetrahydro-pyran-4-yl)-ethylcarbamoyl]-butyl}-amide] yielded an EC50 of 3560 nM. With CCOCCNC(=O)[C@H](CC(C)C)NC(=O)c1ccc2c(c1)nc(Cc1cccs1)n2C(CC)CC [Example 383, 1-(1-Ethyl-propyl)-2-thiophen-2-ylmethyl-1H-benzoimidazole-5-carboxylic acid [(S)-1-(2-ethoxy-ethylcarbamoyl)-3-methyl-butyl]-amide] the EC50 was 2120 nM. With CCC(CC)n1c(Cc2cccs2)nc2cc(C(=O)N[C@@H](CC(C)C)C(=O)N3CCC[C@H]3COC)ccc21 [Example 384, 1-(1-Ethyl-propyl)-2-thiophen-2-ylmethyl-1H-benzoimidazole-5-carboxylic acid [(S)-1-((S)-2-methoxymethyl-pyrrolidine-1-carbonyl)-3-methyl-butyl]-amide] the EC50 was 1630 nM. CCCOCCNC(=O)[C@H](CC(C)C)NC(=O)c1ccc2c(c1)nc(Cc1cccs1)n2C(CC)CC [Example 385, 1-(1-Ethyl-propyl)-2-thiophen-2-ylmethyl-1H-benzoimidazole-5-carboxylic acid [(S)-3-methyl-1-(2-propoxy-ethylcarbamoyl)-butyl]-amide] showed an EC50 of 2510 nM. With CCC(CC)n1c(Cc2cccs2)nc2cc(C(=O)N[C@@H](CC(C)C)C(=O)NCC3CCCCO3)ccc21 (stereo partly drawn) [Example 386, 1-(1-Ethyl-propyl)-2-thiophen-2-ylmethyl-1H-benzoimidazole-5-carboxylic acid {(S)-3-methyl-1-[(tetrahydro-pyran-2-ylmethyl)-carbamoyl]-butyl}-amide] the EC50 was 2230 nM. Compound CCC(CC)n1c(Cc2cccs2)nc2cc(C(=O)N[C@@H](CC(C)C)C(=O)N(C)CC3CCCO3)ccc21 (stereo partly drawn) [Example 387, 1-(1-Ethyl-propyl)-2-thiophen-2-ylmethyl-1H-benzoimidazole-5-carboxylic acid {(S)-3-methyl-1-[methyl-(tetrahydro-furan-2-ylmethyl)-carbamoyl]-butyl}-amide] has an EC50 of 1140 nM. For CCC(CC)n1c(Cc2cccs2)nc2cc(C(=O)N[C@@H](CC(C)C)C(=O)NCCCOCC3CCCO3)ccc21 (stereo partly drawn) [Example 388, 1-(1-Ethyl-propyl)-2-thiophen-2-ylmethyl-1H-benzoimidazole-5-carboxylic acid {(S)-3-methyl-1-[3-(tetrahydro-furan-2-ylmethoxy)-propylcarbamoyl]-butyl}-amide], the EC50 was 1590 nM. For CCC(CC)n1c(Cc2cccs2)nc2cc(C(=O)N[C@@H](CC(C)C)C(=O)NCCCOCc3ccccc3)ccc21 [Example 389, 1-(1-Ethyl-propyl)-2-thiophen-2-ylmethyl-1H-benzoimidazole-5-carboxylic acid [(S)-1-(3-benzyloxy-propylcarbamoyl)-3-methyl-butyl]-amide], the EC50 was 17100 nM. For CCC(CC)n1c(Cc2cccs2)nc2cc(C(=O)N[C@@H](CC(C)C)C(=O)N3CC[C@H](OCc4ccccc4)C3)ccc21 [Example 390, 1-(1-Ethyl-propyl)-2-thiophen-2-ylmethyl-1H-benzoimidazole-5-carboxylic acid [(S)-1-((S)-3-benzyloxy-pyrrolidine-1-carbonyl)-3-methyl-butyl]-amide], the EC50 was 10900 nM. CCC(CC)n1c(Cc2cccs2)nc2cc(C(=O)N[C@@H](CC(C)C)C(=O)NCCCOCC3CC3)ccc21 [Example 391, 1-(1-Ethyl-propyl)-2-thiophen-2-ylmethyl-1H-benzoimidazole-5-carboxylic acid [(S)-1-(3-cyclopropylmethoxy-propylcarbamoyl)-3-methyl-butyl]-amide] gave an EC50 of 2180 nM. CCC(CC)n1c(Cc2cccs2)nc2cc(C(=O)N[C@@H](CC(C)C)C(=O)N(C)CCCC3CCCO3)ccc21 (stereo partly drawn) [Example 392, 1-(1-Ethyl-propyl)-2-thiophen-2-ylmethyl-1H-benzoimidazole-5-carboxylic acid ((S)-3-methyl-1-{methyl-[3-(tetrahydro-furan-2-yl)-propyl]-carbamoyl}-butyl)-amide] showed an EC50 of 1380 nM.
